Measurements as given in patent publication US20160115540A1, “PRODRUGS AND DRUGS” (Biogen MA Inc., priority 2013, published 2016).
Structures can show the parent of a compound that is named as a salt.

Test system: liver
Assay: Transcriptional profiling on Affymetrix GeneChips, single dose, naïve mice: liver
Assay type: in vivo, C57BL/6 mice
Conditions: liver
Procedure: Treated mice were sacrificed at 2, 7, or 12 hours. Tissues (liver, spleen, kidney, jejunum, cortex, hippocampus, striatum and whole blood) were collected and analyzed by transcriptional profiling on mouse Affymetrix GeneChips.
Tissues (liver, spleen, kidney, jejunum, cortex, hippocampus, striatum and whole blood) were collected and analyzed by transcriptional profiling on mouse Affymetrix GeneChips.
Animals were exposed to CO2 and whole blood collected via cardiac puncture. Two 100 μl aliquots of whole blood were collected in 1.5 mL microcentrifuge tubes and snap frozen in liquid nitrogen. Peripheral (liver, spleen, kidney and jejunum) and CNS brain (cerebellum, hippocampus, striatum and cortex) tissues were harvested and snap frozen in liquid nitrogen, with special care taken to collect tissues of similar size and from the same location. All samples were stored at −80° C. until RNA extraction was conducted.
For RNA preparation, frozen tissues were placed in 2 mL RNAse-free 96-well blocks with 1.5 mL QIAzol Lysis Reagent (QIAgen) and a 3.2 mm stainless steel bead (BioSpec Products, Bartlesville, Okla.). Tissues were disrupted for four cycles of 45 seconds in a Mini-Beadbeater (Biospec Products). RNA was extracted in chloroform and the aqueous phase was mixed with an equal volume of 70% ethanol. Extracted RNA was applied to RNeasy 96 plates and purified by the spin method according to the manufacturer's protocol (RNeasy 96 Universal Tissue Protocol, QIAgen, Hilden Germany).
Automated sample amplifications and biotin labelings were carried out using the NuGEN Ovation RNA Amplification system V2 (Cat #3100), Ovation WB reagent (Cat #1300) and Encore Biotin module (Cat #4200) (NuGEN Technologies, Inc, San Carlos, Calif.) according to manufacturer's recommendations using an Arrayplex automated liquid handler (Beckman Coulter, Indianapolis, Ind.). Two micrograms of biotin labeled sscDNA probe were hybridized to Affymetrix GeneChip Affymetrix HT_MG-430_PM plate arrays with modified conditions as described in Allaire et al. Washing and staining of the hybridized arrays were completed as described in the GeneChip Expression analysis technical manual for HT plate arrays using the Genechip® Array Station (Affymetrix, Santa Clara, Calif.) with modifications as described in Allaire et al. The processed GeneChip® plate arrays were scanned using GeneTitan scanner (Affymetrix, Santa Clara, Calif.).
Affymetrix scans were subject to quality control (QC) measures. These tests included a visual inspection of the distribution of raw signal intensities and an assessment of RNA degradation, relative log expression (RLE), and normalized unsealed standard error (NUSE). All sample scans that passed these QC metrics were included in the analysis.
All CEL files were subjected to GC-content-based Robust Multi-array Average (GCRMA) normalization (version 2.20.0) (Irizarry R A, et al. Nucleic Acids Res 2003; 31:e15; Li C, et al. Genome Biol 2001; 2:[…]0032). Expression levels were log (base 2) transformed.
All calculations and analyses were carried out using R (version 2.11.1) and Bioconductor computational tools (Gentleman R. Springer Science+Business Media 2005).

[1] = 100 mg/kg, 7 hr, vs matched vehicle controls
[2] = 100 mg/kg, 12 hr, vs matched vehicle controls

COC(=O)/C=C/C(=O)O [MMF, monomethyl fumarate]
Murine Liver DEGs: Srxn1 (1419942_PM_at) (100 mg/kg, 2 hr, vs matched vehicle controls): 1.68 | Murine Liver DEGs: Akr1b8 (1448894_PM_at) [1]: 1.75 | Murine Liver DEGs: Bmp6 (1450759_PM_at) [1]: 1.65 | Murine Liver DEGs: Cda (1427357_PM_at) [1]: 1.92 | Murine Liver DEGs: Clec4n (1419627_PM_s_at) [1]: 2.40 | Murine Liver DEGs: Erc2 (1434582_PM_at) [1]: −1.95 | Murine Liver DEGs: Fzd8 (1445815_PM_at) [1]: −1.81 | Murine Liver DEGs: G6pdx (1448354_PM_at) [1]: 1.61 | Murine Liver DEGs: Irak3 (1435040_PM_at) [1]: 1.53 | Murine Liver DEGs: Marco (1449498_PM_at) [1]: 2.44 | Murine Liver DEGs: Nqo1 (1423627_PM_at) [1]: 2.20 | Murine Liver DEGs: Pir (1429001_PM_at) [1]: 1.50 | Murine Liver DEGs: Srxn1 (1419942_PM_at) [1]: 1.52 | Murine Liver DEGs: Ablim1 (1453103_PM_at) [2]: −1.51 | Murine Liver DEGs: Atp6v0d2 (1444176_PM_at) [2]: 1.84 | Murine Liver DEGs: Car3 (1460256_PM_at) [2]: −1.57 | Murine Liver DEGs: Ccnf (1443807_PM_x_at) [2]: 1.57 | Murine Liver DEGs: Clmn (1439117_PM_at) [2]: −1.54 | Murine Liver DEGs: Ctla2a (1448471_PM_a_at) [2]: 1.63 | Murine Liver DEGs: Dnajc12 (1417441_PM_at) [2]: 2.53 | Murine Liver DEGs: Fndc3b (1433833_PM_at) [2]: 1.66 | Murine Liver DEGs: Gadd45b (1450971_PM_at) [2]: 1.50 | Murine Liver DEGs: Gm3579 (1431214_PM_at) [2]: 2.74 | Murine Liver DEGs: Hyou1 (1423290_PM_at) [2]: 1.82 | Murine Liver DEGs: Lrrc59 (1416235_PM_at) [2]: 1.65 | Murine Liver DEGs: Nme6 (1448574_PM_at) [2]: 1.57 | Murine Liver DEGs: Ppapdc1b (1428154_PM_s_at) [2]: 1.87 | Murine Liver DEGs: Ppm1k (1441988_PM_at) [2]: −1.56 | Murine Liver DEGs: Prtn3 (1419669_PM_at) [2]: 4.46 | Abcc1 (probe set 1452233_PM_at) differential expression (2 hr): 1.86 | Akr1b8 (probe set 1448894_PM_at) differential expression (2 hr): 2.27 | Ampd3 (probe set 1422573_PM_at) differential expression (2 hr): 1.70 | Caprin1 (probe set 1448348_PM_at) differential expression (2 hr): −1.56 | Clec4d (probe set 1420804_PM_s_at) differential expression (2 hr): 2.05 | Cmah (probe set 1447019_PM_at) differential expression (2 hr): −1.55 | Csnk2a1 (probe set 1419038_PM_a_at) differential expression (2 hr): −1.62 | Figf (probe set 1438953_PM_at) differential expression (2 hr): 2.25 | Fxr1 (probe set 1452247_PM_at) differential expression (2 hr): −1.53 | Gclc (probe set 1424296_PM_at) differential expression (2 hr): 1.72 | Hmox1 (probe set 1448239_PM_at) differential expression (2 hr): 2.41 | Meis2 (probe set 1440091_PM_at) differential expression (2 hr): −1.67 | Mkln1 (probe set 1416734_PM_at) differential expression (2 hr): −1.69 | Pgd (probe set 1436771_PM_x_at) differential expression (2 hr): 1.61 | Ppfibp2 (probe set 1417801_PM_a_at) differential expression (2 hr): 2.55 | Prpf38b (probe set 1455016_PM_at) differential expression (2 hr): −1.53 | Ptprb (probe set 1453908_PM_at) differential expression (2 hr): −1.76 | Ptprg (probe set 1456070_PM_at) differential expression (2 hr): −1.85 | Srxn1 (probe set 1419942_PM_at) differential expression (2 hr): 1.68 | Akr1b8 (probe set 1448894_PM_at) differential expression (7 hr): 1.75 | Bmp6 (probe set 1450759_PM_at) differential expression (7 hr): 1.65 | Cda (probe set 1427357_PM_at) differential expression (7 hr): 1.92 | Clec4n (probe set 1419627_PM_s_at) differential expression (7 hr): 2.40 | Erc2 (probe set 1434582_PM_at) differential expression (7 hr): −1.95 | Fzd8 (probe set 1445815_PM_at) differential expression (7 hr): −1.81 | G6pdx (probe set 1448354_PM_at) differential expression (7 hr): 1.61 | Irak3 (probe set 1435040_PM_at) differential expression (7 hr): 1.53 | Marco (probe set 1449498_PM_at) differential expression (7 hr): 2.44 | Nqo1 (probe set 1423627_PM_at) differential expression (7 hr): 2.20 | Pir (probe set 1429001_PM_at) differential expression (7 hr): 1.50 | Srxn1 (probe set 1419942_PM_at) differential expression (7 hr): 1.52 | Ablim1 (probe set 1453103_PM_at) differential expression (12 hr): −1.51 | Atp6v0d2 (probe set 1444176_PM_at) differential expression (12 hr): 1.84 | Car3 (probe set 1460256_PM_at) differential expression (12 hr): −1.57 | Ccnf (probe set 1443807_PM_x_at) differential expression (12 hr): 1.57 | Clmn (probe set 1439117_PM_at) differential expression (12 hr): −1.54 | Ctla2a (probe set 1448471_PM_a_at) differential expression (12 hr): 1.63 | Dnajc12 (probe set 1417441_PM_at) differential expression (12 hr): 2.53 | Fndc3b (probe set 1433833_PM_at) differential expression (12 hr): 1.66 | Gadd45b (probe set 1450971_PM_at) differential expression (12 hr): 1.50 | Gm3579 (probe set 1431214_PM_at) differential expression (12 hr): 2.74 | Hyou1 (probe set 1423290_PM_at) differential expression (12 hr): 1.82 | Lrrc59 (probe set 1416235_PM_at) differential expression (12 hr): 1.65 | Nme6 (probe set 1448574_PM_at) differential expression (12 hr): 1.57 | Ppapdc1b (probe set 1428154_PM_s_at) differential expression (12 hr): 1.87 | Ppm1k (probe set 1441988_PM_at) differential expression (12 hr): −1.56 | Prtn3 (probe set 1419669_PM_at) differential expression (12 hr): 4.46
